# Experimental data taken from PubChem BioAssay AID328 (DTP/NCI, 2004).
# Several values for one entry are separate records, joined by “and”; a condition that tells them apart may be missing. Identical values can stand only once. Toxic doses and inconclusive results are not listed. Residues, ends and D or L forms follow the SMILES beside them.
# System: BDF1 mice, P388 leukemia ip, median survival T/C
# Test: NCI In Vivo Anticancer Drug Screen. Data for tumor model P388 Leukemia (intraperitoneal) in B6D2F1 (BDF1) mice
# Settings: endpoint: median survival time, higher = longer survival
# Method in brief: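 Read-out is survival of treated animals expressed relative to the vehicle group, as a T/C ratio.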
# [1] = dose: 100.0 mg/kg/injection, schedule: Q01DX009 (ip), vehicle: saline with Tween-80
# [2] = dose: 200.0 mg/kg/injection, schedule: Q01DX009 (ip), vehicle: saline with Tween-80
# [3] = dose: 25.0 mg/kg/injection, schedule: Q01DX009 (ip), vehicle: saline with Tween-80
# [4] = dose: 50.0 mg/kg/injection, schedule: Q01DX009 (ip), vehicle: saline with Tween-80
# [5] = dose: 12.5 mg/kg/injection, schedule: Q01DX009 (ip), vehicle: Klucel (hydroxypropylcellulose) (HPC)
# [6] = dose: 100.0 mg/kg/injection, schedule: Q01DX009 (ip), vehicle: water
# [7] = dose: 6.25 mg/kg/injection, schedule: Q01DX009 (ip), vehicle: saline with Tween-80
# [8] = dose: 12.5 mg/kg/injection, schedule: Q01DX009 (ip), vehicle: saline with Tween-80
# [9] = dose: 12.5 mg/kg/injection, schedule: Q01DX009 (ip), vehicle: saline
# [10] = dose: 100.0 mg/kg/injection, schedule: Q01DX009 (ip), vehicle: saline
structure (smiles),measurement,setting,value
CC(N)C(=O)NC(C)C(=O)NC(C)C(=O)NC(C)C(=O)O (stereo unspecified) (H-AAAA-OH; configuration not given here),T/C,"dose: 50.0 mg/kg/injection, schedule: Q01DX005 (ip), vehicle: saline",93 % of control
same,T/C,"dose: 100.0 mg/kg/injection, schedule: Q01DX005 (ip), vehicle: saline",98 % of control
same,T/C,"dose: 200.0 mg/kg/injection, schedule: Q01DX005 (ip), vehicle: saline",105 % of control
CCCNC(=O)Nc1ccc(C)cc1C,T/C,"dose: 100.0 mg/kg/injection, schedule: Q04DX003 (ip), vehicle: saline with Tween-80",100 % of control
same,T/C,"dose: 200.0 mg/kg/injection, schedule: Q04DX003 (ip), vehicle: saline with Tween-80",95 % of control
same,T/C,"dose: 400.0 mg/kg/injection, schedule: Q04DX003 (ip), vehicle: saline with Tween-80",100 % of control
COC(=O)c1ccc(OCCOc2ccc(C(C)(C)CC(C)(C)C)cc2)c(N)c1,T/C,"dose: 100.0 mg/kg/injection, schedule: Q01DX001 (ip), vehicle: Klucel (hydroxypropylcellulose) (HPC)",95 % of control
same,T/C,"dose: 200.0 mg/kg/injection, schedule: Q01DX001 (ip), vehicle: Klucel (hydroxypropylcellulose) (HPC)",104 % of control
same,T/C,"dose: 400.0 mg/kg/injection, schedule: Q01DX001 (ip), vehicle: Klucel (hydroxypropylcellulose) (HPC)",100 % of control
CC(=O)NCCN=Cc1ccccc1,T/C,[1],112 % of control
same,T/C,[2],120 % of control
COc1cc2cc(c1Cl)NC(=O)CC(OC(=O)C(C)N(C)C(C)=O)C1(C)OC1C(C)C1CC(O)(NC(=O)O1)C(OC)C=C/C=C(\C)C2 (stereo unspecified),T/C,"dose: 0.1 micrograms/kg/injection, schedule: Q01DX009 (ip), vehicle: saline + alcohol",120 % of control
same,T/C,"dose: 0.2 micrograms/kg/injection, schedule: Q01DX009 (ip), vehicle: saline + alcohol",110 % of control
same,T/C,"dose: 0.4 micrograms/kg/injection, schedule: Q01DX009 (ip), vehicle: saline + alcohol",115 % of control
same,T/C,"dose: 0.8 micrograms/kg/injection, schedule: Q01DX009 (ip), vehicle: saline + alcohol",110 % of control
same,T/C,"dose: 6.2 micrograms/kg/injection, schedule: Q01DX009 (ip), vehicle: saline + alcohol",170 % of control
same,T/C,"dose: 12.5 micrograms/kg/injection, schedule: Q01DX009 (ip), vehicle: saline + alcohol",120 % of control
same,T/C,"dose: 25.0 micrograms/kg/injection, schedule: Q01DX009 (ip), vehicle: saline + alcohol",185 % of control
same,T/C,"dose: 50.0 micrograms/kg/injection, schedule: Q01DX009 (ip), vehicle: saline + alcohol",120 % of control
O/N=C1\CCCc2ccc(F)cc21,T/C,[3],100 % of control
same,T/C,[4],106 % of control and 108 % of control
same,T/C,[1],106 % of control
same,T/C,[2],109 % of control and 120 % of control
CC(=O)[C@@]1(O)CC[C@H]2[C@@H]3C[C@H](C)C4=CC(=O)C=C[C@]4(C)[C@@]3(F)[C@@H](O)C[C@@]21C,T/C,"dose: 5.0 mg/kg/injection, schedule: Q01DX010 (sc), vehicle: steriod suspending solution",109 % of control
same,T/C,"dose: 10.0 mg/kg/injection, schedule: Q01DX010 (sc), vehicle: steriod suspending solution",109 % of control
same,T/C,"dose: 20.0 mg/kg/injection, schedule: Q01DX010 (sc), vehicle: steriod suspending solution",118 % of control
same,T/C,"dose: 80.0 mg/kg/injection, schedule: Q01DX010 (sc), vehicle: steriod suspending solution",118 % of control
same,T/C,"dose: 320.0 mg/kg/injection, schedule: Q01DX010 (sc), vehicle: steriod suspending solution",95 % of control and 112 % of control
same,T/C,"dose: 640.0 mg/kg/injection, schedule: Q01DX010 (sc), vehicle: steriod suspending solution",112 % of control
COc1ccc2c(Cc3ccccc3)cncc2c1O,T/C,"dose: 6.25 mg/kg/injection, schedule: Q01DX009 (ip), vehicle: Klucel (hydroxypropylcellulose) (HPC)",99 % of control
same,T/C,[5],100 % of control
same,T/C,"dose: 25.0 mg/kg/injection, schedule: Q01DX009 (ip), vehicle: Klucel (hydroxypropylcellulose) (HPC)",105 % of control
same,T/C,"dose: 50.0 mg/kg/injection, schedule: Q01DX009 (ip), vehicle: Klucel (hydroxypropylcellulose) (HPC)",108 % of control
same,T/C,"dose: 100.0 mg/kg/injection, schedule: Q01DX009 (ip), vehicle: Klucel (hydroxypropylcellulose) (HPC)",117 % of control
CCS(=O)(=O)c1ncc2cnccn12,T/C,[6],92 % of control
same,T/C,"dose: 100.0 mg/kg/injection, schedule: Q04DX003 (ip), vehicle: water",95 % of control
same,T/C,"dose: 200.0 mg/kg/injection, schedule: Q01DX009 (ip), vehicle: water",105 % of control
same,T/C,"dose: 200.0 mg/kg/injection, schedule: Q04DX003 (ip), vehicle: water",91 % of control
same,T/C,"dose: 400.0 mg/kg/injection, schedule: Q01DX009 (ip), vehicle: water",100 % of control
O=C(CCl)c1ccc(O)c(O)c1,T/C,"dose: 3.12 mg/kg/injection, schedule: Q01DX009 (ip), vehicle: saline with Tween-80",109 % of control
same,T/C,"dose: 4.5 mg/kg/injection, schedule: Q04DX003 (ip), vehicle: saline with Tween-80",104 % of control
same,T/C,[7],109 % of control
same,T/C,"dose: 9.0 mg/kg/injection, schedule: Q04DX003 (ip), vehicle: saline with Tween-80",100 % of control
same,T/C,[5],106 % of control and 120 % of control
same,T/C,[8],122 % of control
same,T/C,"dose: 40.0 mg/kg/injection, schedule: Q01DX001 (ip), vehicle: saline",118 % of control
Nc1ncnc2c1ncn2C1OC(CO)CC1O (stereo unspecified),T/C,"dose: 4.68 mg/kg/injection, schedule: Q01DX009 (ip), vehicle: Klucel (hydroxypropylcellulose) (HPC)",108 % of control
same,T/C,"dose: 9.37 mg/kg/injection, schedule: Q01DX009 (ip), vehicle: Klucel (hydroxypropylcellulose) (HPC)",106 % of control
same,T/C,"dose: 18.75 mg/kg/injection, schedule: Q01DX009 (ip), vehicle: Klucel (hydroxypropylcellulose) (HPC)",106 % of control
same,T/C,"dose: 37.5 mg/kg/injection, schedule: Q01DX009 (ip), vehicle: Klucel (hydroxypropylcellulose) (HPC)",111 % of control
same,T/C,"dose: 75.0 mg/kg/injection, schedule: Q01DX009 (ip), vehicle: Klucel (hydroxypropylcellulose) (HPC)",106 % of control
same,T/C,"dose: 150.0 mg/kg/injection, schedule: Q01DX009 (ip), vehicle: Klucel (hydroxypropylcellulose) (HPC)",106 % of control
Nc1ccc(C(=O)Nc2ccc(N(CCCl)CCCl)cc2)cc1,T/C,[9],108 % of control
same,T/C,"dose: 25.0 mg/kg/injection, schedule: Q04DX003 (ip), vehicle: saline",152 % of control
same,T/C,"dose: 50.0 mg/kg/injection, schedule: Q01DX009 (ip), vehicle: saline",173 % of control
same,T/C,"dose: 50.0 mg/kg/injection, schedule: Q04DX003 (ip), vehicle: saline",216 % of control
same,T/C,[10],170 % of control
same,T/C,"dose: 150.0 mg/kg/injection, schedule: Q01DX009 (ip), vehicle: saline",92 % of control
CC12CCC(c3sc(N)c(C#N)c31)C2(C)C (stereo unspecified),T/C,"dose: 1.56 mg/kg/injection, schedule: Q01DX009 (ip), vehicle: saline with Tween-80",88 % of control
same,T/C,"dose: 3.13 mg/kg/injection, schedule: Q01DX009 (ip), vehicle: saline with Tween-80",102 % of control
same,T/C,[7],104 % of control
same,T/C,[8],104 % of control and 121 % of control
same,T/C,[3],104 % of control
same,T/C,[4],118 % of control
N#C/C(=C/c1ccccc1)CBr,T/C,"dose: 25.0 mg/kg/injection, schedule: Q01DX001 (ip), vehicle: saline with Tween-80",102 % of control
same,T/C,"dose: 50.0 mg/kg/injection, schedule: Q01DX001 (ip), vehicle: saline with Tween-80",93 % of control
O=C1N2CCOC2=NC1(c1ccccc1)c1ccccc1,T/C,"dose: 12.5 mg/kg/injection, schedule: Q01DX009 (ip), vehicle: water",94 % of control
same,T/C,"dose: 25.0 mg/kg/injection, schedule: Q01DX009 (ip), vehicle: water",100 % of control
same,T/C,"dose: 50.0 mg/kg/injection, schedule: Q01DX009 (ip), vehicle: water",94 % of control
same,T/C,[6],94 % of control
C=CCOP(=O)(N1CC1C)N1CC1C (stereo unspecified),T/C,"dose: 6.25 mg/kg/injection, schedule: Q01DX009 (ip), vehicle: saline",106 % of control
same,T/C,[9],99 % of control
same,T/C,"dose: 25.0 mg/kg/injection, schedule: Q01DX009 (ip), vehicle: saline",106 % of control
same,T/C,"dose: 30.0 mg/kg/injection, schedule: Q04DX003 (ip), vehicle: saline",109 % of control
same,T/C,"dose: 45.0 mg/kg/injection, schedule: Q04DX003 (ip), vehicle: saline",118 % of control
same,T/C,"dose: 75.0 mg/kg/injection, schedule: Q01DX009 (ip), vehicle: saline",150 % of control and 161 % of control
same,T/C,[10],117 % of control
same,T/C,"dose: 100.0 mg/kg/injection, schedule: Q04DX003 (ip), vehicle: saline",180 % of control and 188 % of control
same,T/C,"dose: 150.0 mg/kg/injection, schedule: Q04DX003 (ip), vehicle: saline",188 % of control
Cc1c(N)nc(Br)c2ccccc12,T/C,"dose: 100.0 mg/kg/injection, schedule: Q04DX003 (ip), vehicle: saline sonified",91 % of control
same,T/C,"dose: 200.0 mg/kg/injection, schedule: Q04DX003 (ip), vehicle: saline sonified",116 % of control
